Measurements as given in PMC6465301, “Enzyme-responsive progelator cyclic peptides for minimally invasive delivery to the heart post-myocardial infarction” (Nature Communications, 2019).
Bridge positions count the residues as written; N and C are the ends. Peptide text beside a SMILES is read from it.

What was measured:
thermolysin = biological target: T1, thermolysin (Bacillus thermoproteolyticus, UniProt P00800); assay: Time course rheology of thermolysin-induced bulk gelation and gel stability; format: in vitro ADME; conditions: 10 mM in 1× DPBS pH 7.4, thermolysin 1:4500, 37 °C, continuous rheological measurement
T1 construct: purchased Promega V4001
T1 sequence (P00800 233-548): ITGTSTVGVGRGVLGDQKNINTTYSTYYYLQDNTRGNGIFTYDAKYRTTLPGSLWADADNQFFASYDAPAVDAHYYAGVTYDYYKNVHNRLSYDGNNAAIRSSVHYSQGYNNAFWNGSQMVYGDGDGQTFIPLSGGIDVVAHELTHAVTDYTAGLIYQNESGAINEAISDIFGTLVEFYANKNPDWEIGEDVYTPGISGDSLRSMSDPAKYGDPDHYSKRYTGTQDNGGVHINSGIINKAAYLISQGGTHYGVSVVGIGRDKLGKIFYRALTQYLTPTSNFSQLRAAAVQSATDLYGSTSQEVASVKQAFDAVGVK
Experimental: All peptide samples were prepared at 10 mM peptide, except for those used to assess the effect of SAP functionalization with respect to weight (15 mg mL^−1). Viscous and viscoelastic properties were assessed using a stress-controlled rheometer (TA Instruments AR-G2) equipped with a Peltier plate to control temperature and a 20 mm diameter parallel plate geometry. Unless otherwise stated all measurements were taken at an angular frequency of 2.5 rad s^−1, strain of 0.5%, and temperature of 37 °C. Measurements were performed with a gap height of 1000 µm and repeated three times (except for step-strain and time course measurements) to ensure reproducibility. To prevent water evaporation, mineral oil was wrapped around the edge of the geometry at the air–sample interface. For viscoelastic measurements the apparatus was used in oscillatory mode. […] The dynamic moduli of the hydrogels were measured as a function of frequency in the range 0.25–100 rad s^−1 at a strain of 0.5%. Continuous step-strain oscillations were used to monitor hydrogel healing through disruption (3 min, 100% strain) and recovery (15 min, 0.5% strain) cycles (n = 3). For viscosity measurements the apparatus was used in steady-state flow mode. The viscosity of the samples was measured as a function of shear rate in the range 0.1–10 s^−1 (5% tolerance). […]

[1] = system: platelet-poor plasma (PPP)
Experimental: For all measurements, peptide stocks in 1× DPBS were prepared such that the final concentrations (v/v) in blood or plasma were 1:10, 1:100, 1:500,1:1000, 1:5000, 1:10,000, and 1:20,000 (peptide/fluid volume). Controls with collagen as a procoagulant initial platelet-adhesive surface (0.095 mg mL^−1 or 1:240 dilution) or with calcium chelated by sodium citrate utilized 1× DPBS as a vehicle to ensure consistent blood dilution in all experiments. Peptide stocks, whole human blood, isolated RBCs, and PPP were warmed to 37 °C immediately prior to use. Plate reader measurements were conducted on an EnSpire Multimode Plate Reader with 96-well tissue culture plates (TCP).
PPP was isolated from citrated whole human blood through two rounds of centrifugation at 2000 × g for 10 min and collection of the upper two-third layer. Briefly, 100 µL of PPP, 50 µL of peptide stock or additive (4× final concentration), and 50 µL of CaCl2 (50 mM) were mixed and added to a 96-well plate and incubated at 37 °C for kinetics measurements. For each sample, n = 6 repeats were conducted. Coagulation profiles were obtained by measuring well absorbance at 405 nm at 30 s intervals for 60 min. Onset to clotting was detected as a sharp increase in sample turbidity.

red blood cells (RBCs) = assay: Hemolysis assay of red blood cells; format: cell-based; conditions: positive control at 1%, defines 100% hemolysis; human RBCs, 1 h, 37 °C; mean of n = 4
Experimental: RBCs were isolated by centrifugation of 40 mL citrated whole human blood at 500 × g for 5 min, followed by gentle washes with 150 mM NaCl (×1) and 1× DPBS (×3). Isolated RBCs were diluted 1:50 into 1× DPBS (pH 7.4) and lightly agitated to prevent settling. Briefly, 190 µL of dilute RBCs and 10 µL of peptide stock or additive (20× final concentration) were mixed and added to a 96-well plate (n = 4 repeats), covered, and incubated at 37 °C for 1 h. Plates were centrifuged at 500 × g to pellet intact RBCs using a centrifuge equipped with a microplate rotor. Supernatant (100 µL) was transferred to a new 96-well plate, taking care not to disturb the pellet. Absorbance of the supernatant was measured at 540 nm to detect released hemoglobin. To calculate % hemolysis, absorbances were corrected for background absorbance from untreated vehicle and then normalized to 1% Triton X-100-treated RBCs to represent 100% hemolysis. %Hemolysis was calculated according to the following equation:2 %Hemolysis=Absexperiemental-Absnegativecontrol/Abspositivecontrol-Absnegativecontrol×100, where Absexperiemental is the average well absorbance pertaining to RBCs pertaining to the additive sample being analyzed, Absnegative control is the average well absorbance for RBCs incubated with vehicle (1× DPBS), and Abspositive control is the average well absorbance for RBCs containing 1% Triton X-100. […]

CC(C)C[C@@H]1NC(=O)CNC(=O)[C@H](CC(C)C)NC(=O)[C@@H]2CCCN2C(=O)[C@H](CC(C)C)NC(=O)[C@H](CC(=O)O)NC(=O)[C@H](CC(C)C)NC(=O)[C@H](CCCCN)NC(=O)[C@H](CC(C)C)NC(=O)[C@H](CC(=O)O)NC(=O)[C@H](CC(C)C)NC(=O)[C@H](CCCCN)NC(=O)[C@H](CC(C)C)NC(=O)[C@H](CC(=O)O)NC(=O)[C@H](CC(C)C)NC(=O)[C@H](CCCCN)NC(=O)[C@@H](N)CSSC[C@@H](C(N)=O)NC(=O)CNC(=O)[C@H](C)NC1=O [KLDLCyclic] (H-CKLDLKLDLKLDLPLGLAGC-NH2; disulfide 1-20)
Stability of viscoelastic properties of resulting gel in the presence of thermolysin (thermolysin): no change for up to 3 days

collagen
Pro-thrombotic profile in PPP [1]: lack of change in pro-thrombotic profiles

Triton X-100
%Hemolysis (red blood cells (RBCs)): 100.00%
